Key:
[1] = chemical stability of ciclesonide in ethanolic formulation as a function of pHapp; format: physicochemical; settings: pHapp range of 4.0 to 4.6, no buffer
Text: To identify an appropriate pHapp in an ethanolic liquid formulation comprising ciclesonide is a challenge. On the one hand side the stability of ciclesonide is better at higher (more neutral) pH values. However, on the other hand, the pH should not be too high since at low [H^+] values already small amounts of contaminants and decomposition products can cause a relatively large change in pHapp. Furthermore, the use of a buffer for inhalable formulations is undesirable due to the administration of the buffer constituents to the lungs and the possibility of the buffer constituents forming a residue in the inhaler which may affect the spray characteristics of the aerosol. […] The addition of buffer is not necessary to create the advantageous formulation of the present invention.

[2] = buffering capacity of ciclesonide in the ethanolic solution; format: physicochemical; settings: ethanol/water solution acidified with HCl 0.1 M
Protocol: More HCl is added than needed to achieve […] in demineralized water alone due to the buffering capacity of ciclesonide.

[3] = taken orally; cited from earlier work

CC(C)C(=O)OCC(=O)C12OC(C3CCCCC3)OC1CC1C3CCC4=CC(=O)C=CC4(C)C3C(O)CC12C [ciclesonide, (11β,16α)-16,17-[[(R)-Cyclohexylmethylene]bis(oxy)]-11-hydroxy-21-(2-methyl-1-oxopropoxy)pregna-1,4-diene-3,20-dione]
chemical stability of ciclesonide [1]: chemically stable | buffering capacity [2]: −3.6 μmol/g ciclesonide

dexamethasone
potency relative to cortisol [3]: 27 times | potency relative to prednisone [3]: 7 times

— patent publication US11819549B2, “Pharmaceutical formulation comprising ciclesonide” (Boehringer Ingelheim Vetmedica GmbH, priority 2012, dated 2023)
